Experimental data as given in ChEMBL document CHEMBL5365448, “Development of Long-Acting Dipeptidyl Peptidase-4 Inhibitors: Structural Evolution and Long-Acting Determinants” (J Med Chem, 2023).
Blank lines part the entries; values can stand above or below the compound they belong to.

Experiments:
[1] = Oral Bioavailability in rat; type: ADME, organism-based; settings: in vivo
[2] = Half life in rat; type: ADME; settings: in vivo
[3] = Cmax in rat at 10 mg/kg, po measured after 24 hrs by LC/MS/MS analysis; type: ADME, organism-based; set-up: dose 10 mg/kg, time 24 hrs, route po; settings: in vivo
[4] = Cmax in Cynomolgus monkey at 10 mg/kg, po measured after 24 hrs by LC/MS/MS analysis; type: ADME, organism-based, Macaca fascicularis; set-up: dose 10 mg/kg, time 24 hrs, route po; settings: in vivo
[5] = Half life in rat at 10 mg/kg, po measured after 24 hrs by LC/MS/MS analysis; type: ADME, organism-based; settings: in vivo
[6] = Volume of distribution in rat at 1 mg/kg, iv measured after 24 hrs by LC/MS/MS analysis; type: ADME, organism-based; settings: in vivo
[7] = Oral bioavailability in rat at 10 mg/kg measured after 24 hrs by LC/MS/MS analysis; type: ADME, organism-based; settings: in vivo
[8] = Tmax in Cynomolgus monkey at 10 mg/kg, po measured after 24 hrs by LC/MS/MS analysis; type: ADME, organism-based, Macaca fascicularis; settings: in vivo
[9] = AUC in Cynomolgus monkey at 10 mg/kg, po measured after 24 hrs by LC/MS/MS analysis; type: ADME, organism-based, Macaca fascicularis; set-up: dose 10 mg/kg, time 24 hrs, route po; settings: in vivo
[10] = Oral bioavailability in Cynomolgus monkey at 10 mg/kg measured after 24 hrs by LC/MS/MS analysis; type: ADME, organism-based, Macaca fascicularis; settings: in vivo
[11] = Tmax in dog at 3 mg/kg, po measured after 24 hrs by LC/MS/MS analysis; type: ADME, organism-based, Canis lupus familiaris; settings: in vivo
[12] = Cmax in dog at 3 mg/kg, po measured after 24 hrs by LC/MS/MS analysis; type: ADME, organism-based, Canis lupus familiaris; set-up: time 24 hrs, dose 3 mg/kg, route po; settings: in vivo
[13] = Oral bioavailability in rat at 1 mg/kg measured after 24 hrs by LC/MS/MS analysis; type: ADME, organism-based; settings: in vivo
[14] = AUC in rat at 1 mg/kg, iv measured after 24 hrs by LC/MS/MS analysis; type: ADME, organism-based; set-up: dose 1 mg/kg, time 24 hrs, route iv; settings: in vivo
[15] = Clearance in Cynomolgus monkey at 10 mg/kg, po measured after 24 hrs by LC/MS/MS analysis; type: ADME, organism-based, Macaca fascicularis; settings: in vivo
[16] = AUC in rat at 10 mg/kg, po measured after 24 hrs by LC/MS/MS analysis; type: ADME, organism-based; set-up: dose 10 mg/kg, time 24 hrs, route po; settings: in vivo
[17] = Volume of distribution in dog at 3 mg/kg, po measured after 24 hrs by LC/MS/MS analysis; type: ADME, organism-based, Canis lupus familiaris; settings: in vivo
[18] = Oral bioavailability in dog at 3 mg/kg measured after 24 hrs by LC/MS/MS analysis; type: ADME, organism-based, Canis lupus familiaris; settings: in vivo
[19] = Half life in rat at 1 mg/kg, iv measured after 24 hrs by LC/MS/MS analysis; type: ADME, organism-based; settings: in vivo
[20] = Half life in dog at 3 mg/kg, po measured after 24 hrs by LC/MS/MS analysis; type: ADME, organism-based, Canis lupus familiaris; settings: in vivo
[21] = Tmax in rat at 10 mg/kg, po measured after 24 hrs by LC/MS/MS analysis; type: ADME, organism-based; settings: in vivo
[22] = Half life in Cynomolgus monkey at 10 mg/kg, po measured after 24 hrs by LC/MS/MS analysis; type: ADME, organism-based, Macaca fascicularis; settings: in vivo
[23] = AUC in dog at 3 mg/kg, po measured after 24 hrs by LC/MS/MS analysis; type: ADME, organism-based, Canis lupus familiaris; set-up: dose 3 mg/kg, time 24 hrs, route po; settings: in vivo
[24] = Clearance in dog at 3 mg/kg, po measured after 24 hrs by LC/MS/MS analysis; type: ADME, organism-based, Canis lupus familiaris; settings: in vivo
[25] = Volume of distribution in Cynomolgus monkey at 10 mg/kg, po measured after 24 hrs by LC/MS/MS analysis; type: ADME, organism-based, Macaca fascicularis; settings: in vivo
[26] = Clearance in rat at 1 mg/kg, iv measured after 24 hrs by LC/MS/MS analysis; type: ADME, organism-based; settings: in vivo
[27] = Half life in Sprague-Dawley rat at 5 mg/kg, po measured at 0.083 to […] by Liquid chromatography coupled with tandem mass spectrometry analysis; type: ADME, organism-based; settings: in vivo, time 0.083-0.25 hrs
[28] = Oral bioavailability in Sprague-Dawley rat at 5 mg/kg measured at 0.083 to […] by Liquid chromatography coupled with tandem mass spectrometry analysis; type: ADME, organism-based; settings: in vivo, time 0.083-0.25 hrs
[29] = Bioavilability in iv dosed rat; type: ADME, organism-based; settings: in vivo
[30] = Tmax in iv dosed rat; type: ADME, organism-based; settings: in vivo
[31] = Cmax in iv dosed rat; type: ADME, organism-based; set-up: route iv; settings: in vivo
[32] = AUC in iv dosed rat; type: ADME, organism-based; set-up: route iv; settings: in vivo
[33] = Half life in iv dosed rat; type: ADME, organism-based; settings: in vivo
[34] = Half life in dog at 0.5 mg/kg, iv measured after 0.083 hrs by liquid chromatography tandem mass spectrometry analysis; type: ADME, organism-based, Canis lupus familiaris; settings: in vivo
[35] = Clearance in rat at 1 mg/kg, iv measured after 0.083 hrs by liquid chromatography tandem mass spectrometry analysis; type: ADME, organism-based; settings: in vivo
[36] = Half life in mouse at 1 mg/kg, iv measured after 0.083 hrs by liquid chromatography tandem mass spectrometry analysis; type: ADME, organism-based; settings: in vivo
[37] = Half life in monkey at 0.5 mg/kg, iv measured after 0.083 hrs by liquid chromatography tandem mass spectrometry analysis; type: ADME, organism-based, Macaca mulatta; settings: rhesus monkey, in vivo
[38] = Oral bioavailability in rat at 2 mg/kg measured at 0.25 to 168 hrs by liquid chromatography tandem mass spectrometry analysis; type: ADME, organism-based; settings: in vivo, time 0.25-168 hrs
[39] = Half life in rat at 1 mg/kg, iv measured after 0.083 hrs by liquid chromatography tandem mass spectrometry analysis; type: ADME, organism-based; settings: in vivo

half-life [2]: 438 min
SMILES: CC#CCn1c(N2CCC[C@@H](N)C2)nc2c1c(=O)n(Cc1nc3cc(F)ccc3s1)c(=O)n2C

half-life [27]: 984 min
bioavailability [28]: 94%
SMILES: N#Cc1ccc(F)cc1Cn1c(N2CCC[C@@H](N)C2)nc2cc(-c3cccnc3)sc2c1=O

half-life [2]: 66 min
bioavailability [1]: 3%
SMILES: N[C@@H](CC(=O)N1CCSC1)Cc1cc(F)c(F)cc1F

Continued, compound first:

SMILES: CS(=O)(=O)Nc1cccc(NC(=O)CN2CCN(C(=O)C[C@H](N)Cc3ccccc3F)[C@H](Cc3ccccc3)C2)c1
bioavailability [1]: < 1%

SMILES: Cn1c(=O)cc(N2CCC[C@@H](N)C2)n(Cc2ccccc2C#N)c1=O [ALOGLIPTIN]
Cmax [3]: 393 ng/mL
Cmax [4]: 3210 ng/mL
half-life [5]: 168 min
Vd [6]: 3.5 L/kg
bioavailability [7]: 45%
Tmax [8]: 1 h
AUC at 24 h [9]: 16600 ng·h/mL
bioavailability [10]: 87%
Tmax [11]: 24 min
Cmax [12]: 447 ng/mL
bioavailability [13]: 86%
AUC at 24 h [14]: 260 ng·h/mL
CL/F [15]: 8.8 mL/min/kg
AUC at 24 h [16]: 1200 ng·h/mL
Vd [17]: 3.5 L/kg
bioavailability [18]: 68%
half-life [19]: 84 min
half-life [20]: 180 min
Tmax [21]: 2.3 h
half-life [22]: 336 min
AUC at 24 h [23]: 1600 ng·h/mL
CL/F [24]: 23 mL/min/kg
Vd [25]: 2.6 L/kg
clearance [26]: 49 mL/min/kg

SMILES: N[C@H]1C[C@@H](N2Cc3nn4c(C(F)(F)F)cc(C(F)(F)F)nc4c3C2)CO[C@@H]1c1cc(F)ccc1F
bioavailability [29]: 71%
half-life [2]: 1520 min
Tmax [30]: 5.3 h
bioavailability [1]: 71%
Cmax [31]: 119 ng/mL
AUC [32]: 3700 ng·h/mL
half-life [33]: 1520 min

SMILES: N[C@H]1C[C@@H](N2CC3=C(C2)CS(=O)(=O)C3)CO[C@@H]1c1cc(F)ccc1F
half-life [34]: 2.2 days
clearance [35]: 19 mL/min/kg
half-life [36]: 2660 min
half-life [37]: 2.55 days
bioavailability [38]: 91%
half-life [39]: 1680 min
